What was measured:
[1] = Plasma concentrations of ANAVEX2-73 and its metabolite ANAVEX19-144 in the 57-week study; assay type: in vivo, human; details: for Mean Concentration ANAVEX2-73, Max / Mean Concentration ANAVEX2-73, Mean / Mean Concentration ANAVEX2-73, Min: plasma
Method: A pharmacokinetics analysis was performed during Part A only. Blood samples were drawn at 12 and 11 time points after the first oral or IV administration during the first and second periods of Part A, respectively. Pharmacokinetic parameters included in the analysis consisted of maximum plasma drug concentration (C max), time to maximum plasma concentration during a dosing interval (t max), area under the curve from the time of dosing to the last measurable concentration (AUC0-t), mean elimination half-life (t ½), and the total body clearance for extravascular administration divided by the fraction of dose absorbed (CL/F).
Steady-state plasma levels of ANAVEX2-73 and its metabolite ANAVEX19-144 were assessed in Part B through blood samples collection at pre-specified time points (Weeks 12, 26, 36 and 48). Mean concentration values in ng/mL of each patient were then averaged. Table 14 illustrates mean plasma concentrations of ANAVEX2-73 and its metabolite ANAVEX19-144 during the 57-week study study.

[2] = Safety and tolerability, 57-week study; assay type: in vivo, human
Method: Part B, following immediately after Part A, was an open-label extension of the oral daily dose for an additional 52 weeks. The primary endpoint of 57-week study was to establish the safety and tolerability of the drug. Secondary endpoints aimed at establishing the relationship between dosing regimen and pharmacodynamics-exploratory efficacy outcomes of cognition and function. Cognition was assessed by the Mini Mental State Examination (MMSE), while functional abilities by the Alzheimer's Disease Co-operative Study—Activities of Daily Living Inventory (ADCS-ADL). Additional cognitive measures included the Cogstate Brief Battery (CBB), and functional measures of Electroencephalography and Event-Related Potential (EEG and ERP). Part B continued an adaptive oral administration scheme. Table 12 summarizes mean oral dose administration during the 57-week study study. Safety was evaluated by assessment of incidence and severity of adverse events, vital signs, physical examination, clinical laboratory parameters (hematology, serum chemistry and urinalysis), and electrocardiogram (data not shown).

[3] = test system: subjects with mild-to-moderate AD; assay: KEM Formal Concept Analysis association rules (support, confidence, lift) linking patient characteristics with MMSE / ADCS-ADL response; set-up: species or system human
From the text: A small cohort, with the number of patient observations orders of magnitude smaller than number of attributes, constitutes an analytical challenge. In this study, an unsupervised Formal Concept Analysis method (FCA), based on Galois lattices, as implemented in the KEM software (v.3.6.2), was used to identify and rank phenotypic and genotypic biomarkers. No link is assumed in this analysis between biomarkers and outcomes, enabling a hypothesis free, data-driven, generation of all relations.
A total of 3,145,630 relations between all available features were explored. Stringent filtering excluded rules containing variables coding for the absence of DNA variants and medium RNA expression groups. Numerical filtering of rules involved the following thresholds: support (n>3), confidence (>50%), lift (≥1.2) and p-value (Fisher Exact Test or Mann-Whitney-Wilcoxon<0.05). The filtering steps led to a subset of 1,019 association rules linking clinical, genomic and transcriptomics patient characteristics with response at multiple time points. A second filtering step focused on relationships with response at week 57 only, raising […], and lift≥1.5, and excluding RNA expression, CYP variants and dose/concentration from Part A. This further reduced the number of rules to 15 associations linked to outcome as measured by Delta (with binarized discretization) or Slope of MMSE or ADCS-ADL at week 57. The 15 rules are presented in order of highest confidence and highest lift. The stringent filtering focused on relationships of response at week 57 (end of Part B), reduced the number of associations to only 15 linked to outcomes as measured by Delta or Slope MMSE or ADCS-ADL (Table 4). […] Higher concentrations improved Delta ADCS-ADL scores (p=0.03) (FIG. 2C).
The KEM® (Knowledge Extraction and Management) v 3.6.2 software was used to systematically extract relations between all variables collected. […]
P-values from two statistical tests were calculated for each association rule. […]

SIGMAR1 = biological target: T1, SIGMAR1 (Mus musculus, UniProt O55242); details: mice; cited from earlier work
T1 construct: from tissue; host or cells: living mice (in vivo PET)
T1 sequence (O55242 whole entry): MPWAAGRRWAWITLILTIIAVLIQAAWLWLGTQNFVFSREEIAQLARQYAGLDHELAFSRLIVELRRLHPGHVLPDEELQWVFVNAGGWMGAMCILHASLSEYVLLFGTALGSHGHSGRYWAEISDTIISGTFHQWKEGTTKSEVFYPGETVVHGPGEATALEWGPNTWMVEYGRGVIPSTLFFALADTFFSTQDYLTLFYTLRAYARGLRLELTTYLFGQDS

In the case of `CN(C)CC1CCOC1(c1ccccc1)c1ccccc1.Cl` (stereo not shown) [ANAVEX2-73, tetrahydro-N,N-dimethyl-2,2-diphenyl-3-furanmethanamine hydrochloride], the “plasma concentration versus dose in the present study” value ([1]; 57-week study Part A, FIG. 2B) is reported as “dose-dependent increase”, the “Mean Concentration ANAVEX2-73, Max” value ([1]; Part A1 (Day 1-2)) is reported as 15.9 ng/mL and the “Mean Concentration ANAVEX2-73, Mean” value ([1]; Part A1 (Day 1-2)) is reported as 5.25 ng/mL. The “Mean Concentration ANAVEX2-73, Min” value ([1]; Part A1 (Day 1-2: within 2 days of first oral dose), N = 32 patients) was 0.84 ng/mL, the “Mean Concentration ANAVEX2-73, Max” value ([1]; Part A2 (Day 3-12)) was 8.44 ng/mL and the “Mean Concentration ANAVEX2-73, Mean” value ([1]; Part A2 (Day 3-12)) was 2.11 ng/mL. For the same compound, the “Mean Concentration ANAVEX2-73, Min” value ([1]; Part A2 (Day 3-12)) was 0.03 ng/mL, the “Mean Concentration ANAVEX2-73, Max” value ([1]; Part B (Week 5 to Week 57)) was 11.58 ng/mL and the “Mean Concentration ANAVEX2-73, Mean” value ([1]; Part B (Week 5 to Week 57)) was 3.8 ng/mL. For the same compound, the “Mean Concentration ANAVEX2-73, Min” value ([1]; Part B (Week 5 to Week 57)) was 0 ng/mL, the “primary endpoint of safety and tolerability” value ([2]; 57-week Phase 2a AD study, 32 patients with mild to moderate AD) was “met its primary endpoint of safety and tolerability” and the “patients discontinued due to an Adverse Event (AE)” value ([2]; 57-week study, seven patients discontinued in total) was “one”. The “Confidence, High Concentration Part B -> MMSE Slope Improve” value ([3]; Week 57, Support 5, nx 8, ny 7) was 0.63, the “Lift, High Concentration Part B -> MMSE Slope Improve” value ([3]; Week 57, Support 5, nx 8, ny 7) was 1.88 and the “increase in probability of improved MMSE outcome” value ([3]; average blood concentration above 4 ng/mL in Part B, week 57) was 1.88 fold. The “target binding by PET scan” value (SIGMAR1) was “directly bind its target”.

— patent US12383526B2, “Optimized sigma-1 agonist method of responder selection and treatment” (ANAVEX LIFE SCIENCES CORP., priority 2018, dated 2025)
